The values that follow come from US10383926B2, “Biological markers useful in cancer immunotherapy” (GEMVAX & KAEL CO., LTD., priority 2013, dated 2019).

The subject of one data set is 26 cytokines in serum. Kind of data set: Luminex multiplex inflammatory cytokine analysis of patient serum (TeloVac trial). It counts as in vivo, human. The method, then: (§1) The TeloVac trial, was initiated in January 2007 comparing combination therapy with Gemcitabine and Capecitabine (GemCap) therapy with concurrent and sequential chemo-immunotherapy using GV1001 in locally advanced and metastatic pancreatic cancer.
(§2) After this, GV1001 was administered once monthly. GM-CSF was administered separately as an intradermal injection 10-15 minutes before all GV1001 injections at the approximately same site.
Cytokine Results: The Kruskal-Wallis comparison of Arm 2 and Arm 3 baseline (i.e. before treatment) with arm 2 week 7 (GemCap) with Arm 3 week 10 (GemCap and GV1001) serum samples are shown in table 1 below.
Paired analysis was carried out for: • Arm 2 patients at baseline and following 7 weeks of GemCap treatment. • Arm 3 patients at baseline and following 10 weeks of GemCap and GV1001 treatment.

Data set [1] concerns locally advanced and metastatic pancreatic cancer. Kind of data set: Survival analysis, TeloVac Phase III trial. It counts as in vivo, human. The following applies: 1062 patients, 52 centres. Here is the method:
The TeloVac trial recruited 1062 patients in 52 centres throughout the UK. […] Importantly, biomarkers for an increased survival in response to the vaccine were identified in a subgroup of patients.
as §1, §2

In data set [2] the test system is advanced pancreatic and pulmonary cancer patients. The following applies: cited from earlier work.
The next data set has as its system HLA class II molecules. The following applies: cited from earlier work.

In the case of “EARPALLTSRLRFIPK (listed as Homo sapiens) [GV1001, 16-mer peptide, fragment of the human telomerase enzyme]”, the anti-inflammatory response entry with 26 cytokines in serum (TeloVac translational research) is “significant anti-inflammatory response”. Besides, in the data set on 26 cytokines in serum (human, in vivo), the “regulation of serum levels of eotaxin or MIP1α” value is listed as “did not appear that treatment with GV1001 could regulate”. In the data set with 26 cytokines in serum (serum, paired analysis), the “change of serum cytokine levels, pre-treatment compared to post treatment” value is recorded as “this decrease was not evident”. In data set [1], the “overall survival versus control group receiving chemotherapy” value is “no significant difference in overall survival”. Also, in data set [2], the “GV1001-specific T-cell responses, subjects” value was greater than 50% and the toxicity entry is “without clinically important toxicity”. For the same sequence, the HLA binding result in the data set with HLA class II molecules is given as “binds multiple HLA class II molecules”.
